The values that follow come from patent US9718840B2, “Condensed 5-oxazolidinone derivative” (SUMITOMO DAINIPPON PHARMA CO., LTD., priority 2014, dated 2017).

Bounds are passed on as bounds.

One data set concerns the target T1, human thrombin (Homo sapiens, UniProt P00734).
T1 construct: human thrombin (manufactured by Enzyme Research Laboratories); purchased Enzyme Research Laboratories
Description: Enzyme selectivity evaluation test: thrombin. The class given is biochemical. The method, then: S-2366 (pyroGlu-Pro-Arg-pNA.HCl) was added as the substrate at a final concentration of 300 μmol/L. After progression of the reaction, the absorbance was measured at OD 405 nm.

The target in data set [1] is T2, Tissue Factor (TF):Factor VIIa (FVIIa) Complex (Homo sapiens, UniProt P08709).
T2 construct: Human FVIIa (manufactured by Enzyme Research Laboratories); purchased Enzyme Research Laboratories (FVIIa); R&D Systems, Inc. (TF)
Put plainly: Enzyme selectivity evaluation test: TF:FVIIa complex. It is filed as biochemical. The procedure:
S-2288 (H-D-Ile-Pro-Arg-pNA.2HCl) (manufactured by Chromogenix) was added as the substrate at a final concentration of 300 μmol/L. After progression of the reaction, the absorbance was measured at OD 405 nm.

A further data set concerns the target T3, Human FIXαβ (Homo sapiens, UniProt P00740).
T3 construct: 3) Factor IXa (FIXa); purchased Enzyme Research Laboratories
Description: Enzyme selectivity evaluation test: FIXa. It is filed as biochemical. The method, then:
SPECTROZYME® FIXa (D-Leu-Ph′Gly-Arg-pNA.2AcOH) (manufactured by American Diagnostica Inc.) was added as the substrate at a final concentration of 800 μmol/L. After progression of the reaction, the absorbance was measured at OD 405 nm. Change in OD in case of no addition of the test compound was defined as 100%, and the concentration at which a rise in OD value was reduced by 50% was calculated as […]

The target of the next data set is T4, Human FXIIa (Homo sapiens, UniProt P00748).
T4 construct: 5) Factor XIIa (FXIIa); purchased Enzyme Research Laboratories
Description: Enzyme selectivity evaluation test: FXIIa. It is filed as biochemical. The method, then:
(§1) S-2288 (H-D-Ile-Pro-Arg-pNA.2HCl) was added as the substrate at a final concentration of 300 μmol/L. After progression of the reaction, the absorbance was measured at OD 405 nm.

The target of another data set is T5, Human plasmin (Homo sapiens, UniProt P00747).
T5 construct: Human plasmin (manufactured by Sekisui Diagnostics, LLC); purchased Sekisui Diagnostics, LLC
Description: Enzyme selectivity evaluation test: plasmin. The class given is biochemical. The procedure:
as §1

Another data set addresses T6, Human urokinase (Homo sapiens, UniProt P00749).
T6 construct: purchased Calbiochem
Put plainly: Enzyme selectivity evaluation test: urokinase. It is filed as biochemical. The procedure:
S-2444 (pyroGlu-Gly-Arg-pNA.HCl) was added as the substrate at a final concentration of 300 μmol/L. After progression of the reaction, the absorbance was measured at OD 405 nm.

The next data set concerns the target T7, Human t-PA (Homo sapiens, UniProt P00750).
T7 construct: purchased Calbiochem
Description: Enzyme selectivity evaluation test: t-PA. It is filed as biochemical. The method, then:
as §1

The target in a further data set is T8, Human kallikrein (Homo sapiens, UniProt P03952).
T8 construct: purchased Enzyme Research Laboratories
Put plainly: Enzyme selectivity evaluation test: plasma kallikrein. The class given is biochemical. The procedure:
as §1

Data set [2] is described as follows: Dog PK test (Test Example 7). The class given is in vivo. As to conditions: plasma, 1 mg/kg, male beagle, intravenous, 1 mg/2 mL/kg, read-out: AUC from 0 hours to 24 hours (compound of Reference Example 2-6 in plasma). The procedure:
(§2) The compound of Reference Example 2-6 was dissolved in a mixed solution of saline/0.1 N HCl=9/1, and this solution was intravenously administered at a dose of 1 mg/2 mL/kg to a male beagle. Blood collection was carried out 0.25, 0.5, 1, 2, 4, 6, and 24 hours after administration. 2 mL of blood was collected using a syringe packed with 20 μL of Novo-Heparin Injection, transferred to a centrifugal tube cooled in ice, and centrifuged at 3000 rpm at 4° C. for 10 minutes to prepare plasma. 200 μL of the prepared plasma was added to a tube containing 600 μL of acetonitrile and mixed for approximately 10 seconds using a vortex mixer. Then, the concentration of the compound of Reference Example 2-6 was measured.
The compound of Example 1 was dissolved in a 0.5% aqueous methylcellulose solution, and this solution was orally administered at a dose of 5 mg/5 mL/kg to a male beagle fasted for 16 hours. Blood collection was carried out 0.5, 1, 2, 4, 6, and 24 hours after administration. 2 mL of blood was collected using a syringe packed with 20 μL of Novo-Heparin Injection, transferred to a centrifugal tube cooled in ice, and centrifuged at 3000 rpm at 4° C. for 10 minutes to prepare plasma. […] Then, the concentration of the compound of Reference Example 2-6 was measured.

The nature of data set [3]: Dog PK test (Test Example 9). As to conditions: plasma, 1 mg/kg, male beagle, intravenous, 1 mg/2 mL/kg, read-out: AUC from 0 hours to 24 hours (compound of Reference Example 2-6 in plasma). It is filed as in vivo. The method, then:
as §2
The compound of Example 7 was suspended in a 0.5% aqueous methylcellulose solution, and this suspension was orally administered at a dose of 5 mg/5 mL/kg to a male beagle fasted for 16 hours. Blood collection was carried out 0.5, 1, 2, 4, 6, and 24 hours after administration. 2 mL of blood was collected using a syringe packed with 20 μL of Novo-Heparin Injection, transferred to a centrifugal tube cooled in ice, and centrifuged at 3000 rpm at 4° C. for 10 minutes to prepare plasma. […] Then, the concentration of the compound of Reference Example 2-6 was measured.

Data set [4] relates to Rabbit nail bleeding models. Put plainly: Effect of combined use with antiplatelet drug using rabbit nail bleeding model. It is filed as in vivo. As to conditions: alone; for Bleeding time: rabbit, maximum 60 minutes; for Bleeding time (fold-increase): ratio to vehicle group average. The procedure: Rabbit nail bleeding models were prepared by a modification of the report of Wong et al. (Wong P C. et al., J. Thromb. Haemost. 7: 1313-1320 (2009)). Male rabbits (JW, 1.5 to 3.5 kg) were anesthetized by the inhalation of isoflurane (ISOFLU®, manufactured by DS Pharma Animal Health Co., Ltd.) (introduced anesthesia: 4%, continuous anesthesia: 2 to 3%). For the intravenous administration of a test drug or a vehicle, an indwelling needle was inserted to the auricular vein, and the test drug or the vehicle was promptly intravenously administered (0.67 mL/kg) and then continuously intravenously administered (1 mL/kg/hr). One hour after the start of administration, three posterior toenails were cut and dipped in saline heated to approximately 37° C., and the bleeding time was measured. The bleeding time was defined as a time from the cutting to the arrest of bleeding, and an average value from the three nails was used. The measurement time was 60 minutes at the maximum. If bleeding for 60 minutes or longer was confirmed, the bleeding time was regarded as 60 minutes.

Another data set deals with Human FXIa (Homo sapiens, UniProt P03951). Description: In vitro activated factor XI (FXIa) inhibition test. It is filed as biochemical. Details: purchased Enzyme Research Laboratories. As to conditions: substrate S-2366, 37° C., 10 minutes; read-out: FXIa Inhibition activity IC50.
Setting [5] is: dose 1.5 + 2.25 mg/kg + mg/kg/h i.v.
Where [6] appears, read: dose 5.0 + 7.5 mg/kg + mg/kg/h i.v.

T2 sequence (P08709 213-466 limits assumed): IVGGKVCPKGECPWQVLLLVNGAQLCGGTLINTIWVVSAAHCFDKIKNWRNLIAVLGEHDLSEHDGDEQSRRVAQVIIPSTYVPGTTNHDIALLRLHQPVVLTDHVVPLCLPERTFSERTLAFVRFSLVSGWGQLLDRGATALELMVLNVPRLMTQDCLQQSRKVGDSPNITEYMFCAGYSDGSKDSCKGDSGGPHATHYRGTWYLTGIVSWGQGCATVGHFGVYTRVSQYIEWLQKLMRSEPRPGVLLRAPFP
T2 sequence (P08709 61-212 partner limits assumed): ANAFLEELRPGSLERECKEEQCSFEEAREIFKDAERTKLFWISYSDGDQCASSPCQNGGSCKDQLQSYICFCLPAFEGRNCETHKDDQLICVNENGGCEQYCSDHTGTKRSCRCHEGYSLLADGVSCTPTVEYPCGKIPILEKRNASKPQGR
T2 sequence (P13726 33-251 partner limits assumed): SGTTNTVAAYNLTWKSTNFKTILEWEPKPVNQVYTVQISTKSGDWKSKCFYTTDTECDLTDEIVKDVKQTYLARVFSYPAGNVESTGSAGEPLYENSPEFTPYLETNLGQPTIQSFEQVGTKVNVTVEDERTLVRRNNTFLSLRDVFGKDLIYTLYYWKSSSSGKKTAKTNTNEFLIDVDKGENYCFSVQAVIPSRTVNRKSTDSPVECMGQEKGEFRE
T5 sequence (P00747 581-810 limits assumed): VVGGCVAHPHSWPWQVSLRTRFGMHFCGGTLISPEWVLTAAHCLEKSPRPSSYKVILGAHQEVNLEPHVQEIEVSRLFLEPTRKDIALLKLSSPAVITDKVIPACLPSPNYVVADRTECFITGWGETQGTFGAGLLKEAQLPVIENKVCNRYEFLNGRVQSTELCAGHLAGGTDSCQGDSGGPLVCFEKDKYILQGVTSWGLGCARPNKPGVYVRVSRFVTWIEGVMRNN
T5 sequence (P00747 97-580 partner limits assumed): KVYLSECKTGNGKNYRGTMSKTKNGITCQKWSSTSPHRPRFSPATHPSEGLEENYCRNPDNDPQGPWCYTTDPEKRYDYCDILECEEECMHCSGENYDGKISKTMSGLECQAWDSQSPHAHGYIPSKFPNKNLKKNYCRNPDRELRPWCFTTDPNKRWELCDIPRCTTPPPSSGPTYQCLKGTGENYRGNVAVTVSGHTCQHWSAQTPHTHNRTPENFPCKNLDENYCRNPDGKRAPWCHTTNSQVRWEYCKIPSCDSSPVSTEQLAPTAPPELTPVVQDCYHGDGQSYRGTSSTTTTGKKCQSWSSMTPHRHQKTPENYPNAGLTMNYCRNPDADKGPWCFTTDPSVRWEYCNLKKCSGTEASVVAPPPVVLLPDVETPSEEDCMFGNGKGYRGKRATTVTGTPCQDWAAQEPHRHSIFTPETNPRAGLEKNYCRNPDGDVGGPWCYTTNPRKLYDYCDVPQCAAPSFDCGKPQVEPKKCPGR
T7 sequence (P00750 36-562): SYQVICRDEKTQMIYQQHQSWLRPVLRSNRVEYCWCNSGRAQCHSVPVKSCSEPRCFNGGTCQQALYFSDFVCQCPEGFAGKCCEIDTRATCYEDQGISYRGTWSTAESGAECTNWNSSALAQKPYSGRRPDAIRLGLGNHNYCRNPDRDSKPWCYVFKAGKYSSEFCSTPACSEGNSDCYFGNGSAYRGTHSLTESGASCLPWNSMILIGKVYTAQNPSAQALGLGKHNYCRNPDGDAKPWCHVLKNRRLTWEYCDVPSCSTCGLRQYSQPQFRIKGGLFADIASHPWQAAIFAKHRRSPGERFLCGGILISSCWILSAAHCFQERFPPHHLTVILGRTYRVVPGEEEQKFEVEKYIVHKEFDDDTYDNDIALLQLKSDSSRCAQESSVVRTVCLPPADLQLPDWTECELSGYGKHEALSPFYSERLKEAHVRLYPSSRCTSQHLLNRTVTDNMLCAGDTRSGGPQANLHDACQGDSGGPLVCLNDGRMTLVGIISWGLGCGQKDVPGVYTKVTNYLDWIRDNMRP
T3 sequence (P00740 227-461 limits assumed): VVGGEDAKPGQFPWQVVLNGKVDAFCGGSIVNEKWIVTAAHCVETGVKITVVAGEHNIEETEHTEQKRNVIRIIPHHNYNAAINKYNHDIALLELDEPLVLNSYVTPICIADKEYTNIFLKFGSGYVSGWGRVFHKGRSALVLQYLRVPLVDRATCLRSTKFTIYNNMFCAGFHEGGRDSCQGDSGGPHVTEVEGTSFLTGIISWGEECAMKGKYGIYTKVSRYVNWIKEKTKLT
T3 sequence (P00740 47-191 partner limits assumed): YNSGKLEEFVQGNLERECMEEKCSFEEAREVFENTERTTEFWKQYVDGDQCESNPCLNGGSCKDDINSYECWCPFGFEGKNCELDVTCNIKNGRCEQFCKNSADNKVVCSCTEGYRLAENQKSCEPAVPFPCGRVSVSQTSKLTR
T4 sequence (P00748 373-615 limits assumed): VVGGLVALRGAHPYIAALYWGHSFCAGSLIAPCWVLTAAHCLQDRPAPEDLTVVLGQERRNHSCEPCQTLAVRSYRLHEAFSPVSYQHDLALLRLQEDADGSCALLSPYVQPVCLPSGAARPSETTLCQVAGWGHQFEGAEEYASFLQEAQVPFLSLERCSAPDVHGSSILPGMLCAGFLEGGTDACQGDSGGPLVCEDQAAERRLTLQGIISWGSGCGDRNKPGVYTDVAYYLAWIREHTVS
T4 sequence (P00748 20-372 partner limits assumed): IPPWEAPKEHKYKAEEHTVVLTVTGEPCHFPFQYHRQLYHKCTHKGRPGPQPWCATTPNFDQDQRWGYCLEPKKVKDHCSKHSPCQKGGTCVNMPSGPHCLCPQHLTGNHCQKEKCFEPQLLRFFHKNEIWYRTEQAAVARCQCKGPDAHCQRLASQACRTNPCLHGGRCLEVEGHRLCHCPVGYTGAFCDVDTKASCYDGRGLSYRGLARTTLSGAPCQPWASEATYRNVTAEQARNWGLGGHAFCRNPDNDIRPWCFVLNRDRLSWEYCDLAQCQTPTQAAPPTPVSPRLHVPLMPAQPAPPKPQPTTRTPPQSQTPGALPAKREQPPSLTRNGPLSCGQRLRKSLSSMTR
T8 sequence (P03952 391-638 limits assumed): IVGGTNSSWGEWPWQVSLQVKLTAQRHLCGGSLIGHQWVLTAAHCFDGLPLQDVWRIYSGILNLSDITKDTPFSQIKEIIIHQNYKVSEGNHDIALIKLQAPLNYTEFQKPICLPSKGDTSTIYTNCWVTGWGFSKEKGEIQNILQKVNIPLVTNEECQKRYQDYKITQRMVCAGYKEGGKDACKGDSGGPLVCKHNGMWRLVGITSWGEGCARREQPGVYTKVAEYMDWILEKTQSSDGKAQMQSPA
T8 sequence (P03952 20-390 partner limits assumed): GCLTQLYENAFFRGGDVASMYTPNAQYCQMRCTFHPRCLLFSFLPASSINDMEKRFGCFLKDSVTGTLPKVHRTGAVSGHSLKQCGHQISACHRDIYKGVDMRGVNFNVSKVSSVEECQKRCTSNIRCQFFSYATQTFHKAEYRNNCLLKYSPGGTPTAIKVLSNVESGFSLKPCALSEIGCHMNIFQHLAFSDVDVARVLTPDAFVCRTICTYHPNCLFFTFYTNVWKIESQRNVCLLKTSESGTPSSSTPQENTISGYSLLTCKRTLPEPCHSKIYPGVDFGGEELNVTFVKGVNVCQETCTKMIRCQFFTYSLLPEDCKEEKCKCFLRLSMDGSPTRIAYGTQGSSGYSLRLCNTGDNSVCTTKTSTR
Chain of Human FXIa (P03951 388-625 limits assumed): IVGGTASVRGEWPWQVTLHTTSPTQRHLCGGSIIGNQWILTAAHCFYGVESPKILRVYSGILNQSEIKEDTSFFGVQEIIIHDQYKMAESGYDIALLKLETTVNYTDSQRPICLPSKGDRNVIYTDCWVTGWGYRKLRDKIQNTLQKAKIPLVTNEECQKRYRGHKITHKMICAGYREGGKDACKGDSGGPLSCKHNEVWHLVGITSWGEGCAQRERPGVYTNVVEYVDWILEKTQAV
Chain of Human FXIa (P03951 19-387 partner limits assumed): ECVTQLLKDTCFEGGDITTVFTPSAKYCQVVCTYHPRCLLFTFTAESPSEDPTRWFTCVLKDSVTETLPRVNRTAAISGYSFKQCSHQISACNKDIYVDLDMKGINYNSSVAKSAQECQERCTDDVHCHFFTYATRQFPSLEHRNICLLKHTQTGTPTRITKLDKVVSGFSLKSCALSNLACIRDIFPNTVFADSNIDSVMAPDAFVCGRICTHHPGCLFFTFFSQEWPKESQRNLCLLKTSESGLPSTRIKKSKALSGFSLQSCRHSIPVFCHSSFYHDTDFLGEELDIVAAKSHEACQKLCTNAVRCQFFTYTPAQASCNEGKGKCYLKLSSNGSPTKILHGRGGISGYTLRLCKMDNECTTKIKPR

For the compound `Cl.N[C@H](CF)[C@H]1CC[C@H](C(=O)N2CC[C@@H](C3CCCCC3)[C@H]2C(=O)Nc2ccc3[nH]c(C(=O)O)cc3c2)CC1` [Reference Example 2-6, 5-{[(3S)-1-({trans-4-[(1S)-1-Amino-2-fluoroethyl]cyclohexyl}carbonyl)-3-cyclohexyl-L-prolyl]amino}-1H-indole-2-carboxylic acid hydrochloride], the IC50 (on human thrombin; in data set [1]; against Human FIXαβ; against Human FXIIa; at Human plasmin; on Human urokinase) was over 10 µM in each case. Also, the IC50 is over 10 µM at Human t-PA, 0.43 µM on Human kallikrein and 0.006 µM on Human FXIa. For the same compound, the AUC in [2] was 5220 ng·h/mL; in data set [3], 4420 ng·h/mL. Besides, the “Bleeding time” value in data set [4] (setting [5]) is 772 ± 234 s; in data set [4] (setting [6]), 768 ± 236 s. In addition, the “Bleeding time (fold-increase)” value in data set [4] (setting [5]) and in data set [4] (setting [6]) was 1.3 ± 0.4 fold-increase each time.

The term IC50 denotes the point on the concentration scale where inhibition reaches its midpoint. The AUC is the area under the concentration-time curve, a measure of exposure.
